Reference: the METLIN SMRT retention time set (Domingo-Almenara et al. 2019)

Assay: gradient 5% acetonitrile 3 min, to 50% in 2 min, to 85% in 15 min, held 3 min, 100 µL/min
Conditions: column: Zorbax Extend-C18 2.1 x 50 mm; eluents: water / acetonitrile, 0.1% formic acid
Procedure, shortened: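 Retention times come from adduct peaks that were picked computationally and then checked by hand. The standards, pure and pooled in mixtures of ~100 molecules, were run on a Zorbax Extend-C18 column (2.1 × 50 mm, 1.8 μm) at 100 μL/min with water and acetonitrile, each with 0.1% formic acid. Detection was by quadrupole time-of-flight mass spectrometry in positive and negative ionization mode, with a dead volume of 40 μL and a dwell volume of 900 μL.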

| Structure (SMILES) | RP-LC retention time [s] |
| --- | --- |
| COCCC(=O)N1CC(c2nc(CCOC)no2)C1 | 581 |
| CCOc1cc(C(=O)N(CC)c2nc(-c3ccccc3)cs2)cc(OCC)c1OCC | 663 |
| CC(C)(C)OC(=O)Cn1cnc2c(-c3ccc(F)cc3)csc2c1=O | 709 |
| Cc1oc2ccn(Cc3ccccc3F)c(=O)c2c1C(=O)NC(C)c1ccccc1 (stereo not given) | 1150 |
| CCOc1ccc(-n2ccnc(NC(=O)Nc3ccc(F)cc3)c2=O)cc1 | 985 |
| COc1ccccc1NC(=O)N1CCc2[nH]cnc2C1c1ccncc1 (stereo not given) | 540 |
| C#CCOc1ccc2c(c1)c(-c1ccc(C(C)C)cc1)nc(=O)n2C(C)C | 1160 |
| CCn1c(N2CCC(C(=O)NCc3ccc4c(c3)OCO4)CC2)cc(=O)n(C)c1=O | 740 |
| Cc1ccc(C)c(-c2csc(Nc3ccc(S(=O)(=O)Nc4cc(C)on4)cc3)n2)c1 | 1070 |
| O=C(NCC(O)c1ccsc1)Nc1cccs1 (stereo not given) | 642 |
| Cc1nc(-c2cc(S(=O)(=O)Nc3ccc(F)cc3F)c(C)s2)sc1C | 1090 |
| O=C(Nc1c(-c2ccc(F)cc2)nc2ccccn12)c1ccc(Cl)cc1Cl | 739 |
| c1ccc2c(N3CCOCC3)nnc(N3CCCC3)c2c1 | 574 |
| CC(C)CCNC(=O)C1(C)Cn2nc(C(=O)NCCc3ccccc3)cc2C(=O)N1C (stereo not given) | 791 |
| CCOc1ccccc1NC(=O)C1CCN(S(=O)(=O)c2ccc3[nH]c(=O)ccc3c2)CC1 | 789 |
| Cc1nc(NC(=O)N2CCC[C@H]2C(N)=O)sc1-c1csc(C(C)(C)C)n1 | 776 |
| COc1ccc(NC(=O)c2cnc(N3CCN(C(=O)c4ccco4)CC3)nc2N)cc1 | 593 |
| COc1cc(OC)c(NC(=O)Cn2cccc2-c2nc(-c3ccc4c(c3)OCO4)no2)cc1Cl | 1110 |
| Cn1cnc(S(=O)(=O)N2CCC(C(=O)NC3CCCCCC3)CC2)c1 | 680 |
| Cc1nnc2sc(SCC(=O)NCc3ccc4c(c3)OCO4)nn2c1=O | 603 |
| CN(CCCNC(=O)c1sc2ncccc2c1-n1cccc1)Cc1ccccc1 | 662 |
| Cc1ccc(N2CC(c3nc(-c4cccs4)no3)CC2=O)cc1 (stereo not given) | 877 |

| Structure (SMILES) | RP-LC retention time [s] |
| --- | --- |
| O=C(Nc1cccc(Cl)c1)Nc1ccc2nc3n(c(=O)c2c1)CCCC3 | 723 |
| Cc1noc(C)c1C(=O)N1CCCn2ccnc2C1C1CCCC1 (stereo not given) | 587 |
| CSc1cccc(NC(=O)COc2cc(C(F)(F)F)c3c(C)nn(C)c3n2)c1 | 756 |
| O=C(c1ccc([N+](=O)[O-])cc1)N(Cc1ccccc1)Cc1ccco1 | 935 |
| CCC1CN2C=NC(N3CCN(C(=O)Nc4ccc(OC)c(Cl)c4)CC3)=CC2=N1 (stereo not given) | 807 |
| O=C(c1cccc(F)c1)N1CCN(C(=O)c2nsc3ccccc23)CC1 | 760 |
| Cc1ccc(CN2CCN(C3CCN(C(=O)Nc4ccccc4C(F)(F)F)CC3)C(=O)C2=O)cc1 | 810 |
| CC(NC(=O)Cn1cc(C(=O)C2CC2)c2ccccc21)c1ccc2c(c1)OCCCO2 (stereo not given) | 866 |
| O=C(CCn1nnc2cc(-c3noc(-c4ccc(F)c(F)c4)n3)ccc21)N1CCCC1 | 946 |
| Cc1ccc(S(=O)(=O)c2ccc([N+](=O)[O-])o2)cc1 | 873 |
| CCCNC(=O)NC1CCN(C2=NS(=O)(=O)C(c3ccc(CC)cc3)=C2C)CC1 | 787 |
| CCc1onc(C)c1C1CCCN1C(=O)c1c(Cl)cnn1CC (stereo not given) | 773 |
| CCOc1ccc(Nc2cc(C(=O)N3CCCC(C)C3)nc3ccc(C)cc23)cc1 (stereo not given) | 776 |
| Cc1ccccc1CNC(=O)C1(C)CCCN(C(=O)Nc2ccc(Br)cc2)C1 (stereo not given) | 1020 |
| CCc1nc2cc(-c3noc(CNC(=O)Cc4ccc(Cl)cc4)n3)ccc2o1 | 882 |
| Cc1cccc(S(=O)(=O)N2CCC3(C2)C(=O)N(C)c2ccccc23)c1 (stereo not given) | 910 |
| CCn1cc(CCNC(=O)CC(C)C)c2cccnc21 | 656 |
| COc1ccc(OCc2noc(CNC(=O)Nc3cc(OC)c(OC)c(OC)c3)n2)cc1 | 743 |
| CCCCc1ccc(NC(=O)CSc2nccc(N3CCCC3)n2)cc1 | 803 |
| CCc1ccccc1NC(=O)N1CCC(c2nc(C(=O)N3CCCC3)c(C)o2)CC1 | 782 |
| COc1cc(OC)cc(C(=O)NC2CCN(c3cc(-c4ccccc4)[nH]n3)C2)c1 (stereo not given) | 710 |
| Cc1nn(-c2ccccc2)c(C)c1S(=O)(=O)N1CCC(C(=O)N2CCCc3ccccc32)CC1 | 1040 |

| Structure (SMILES) | RP-LC retention time [s] |
| --- | --- |
| CNC(=O)N1CCCC(c2cccc(C(=O)NCc3ccc(OC(C)C)cc3)c2)C1 (stereo not given) | 835 |
| O=C(C1CCN(S(=O)(=O)c2cccc3nonc23)CC1)N1CCc2ccccc2C1 | 913 |
| CC(C)c1nnc(C2CN(Cc3cccc(C(F)(F)F)c3)CC23CCN(C)CC3)o1 (stereo not given) | 593 |
| O=C(Cn1c2ccccc2c2ncn(Cc3nc(C4CC4)no3)c(=O)c21)Nc1ccc2c(c1)OCO2 | 823 |
| COc1ccc2c(c1)C1(CCN(C(=O)c3ccc(F)c(F)c3)C1)C(=O)N2C (stereo not given) | 634 |
| CCCn1cnc2cc(CNC(=O)c3cnccn3)ccc21 | 578 |
| CCOc1ccc(-n2nnnc2CNC(=O)NCc2cccs2)cc1 | 714 |
| CC1CCN(c2nccnc2Oc2ccc(C(=O)NCc3ccco3)cc2)CC1 | 979 |
| Cc1cccc(NC(=O)CN2C(=O)CCc3cc(S(=O)(=O)N4CCCCC4C)ccc32)c1 (stereo not given) | 848 |
| CC1CN(C(=O)Cn2cc(SCC(=O)NCC3CCCO3)c3ccccc32)CC(C)O1 (stereo not given) | 723 |
| Cc1cc(C)c2[nH]c3c(c(=O)c2c1)CN(CC(=O)Nc1ccc2c(c1)OCCO2)CC3 | 604 |
| CN1C(=O)COc2cc(-c3noc(C(=O)NCC4CCCO4)n3)ccc21 (stereo not given) | 702 |
| CN(Cc1ccccc1)C(=O)c1ccc2c(c1)N(CC(=O)N1CCCC1)C(=O)CO2 | 723 |
| Cc1ccn2c(NC(=O)c3cccc([N+](=O)[O-])c3C)c(-c3ccccc3)nc2c1 | 677 |
| Cc1c(C(=O)OCC(=O)Nc2cccc(Cl)c2)nnn1-c1ccccc1 | 946 |
| CCCc1nnsc1C(=O)N1CC(c2nc(Cc3ccccc3OC)no2)C1 | 898 |
| O=S(=O)(c1ccc2c(c1)OCCO2)N1CCC(Cc2nc(-c3cccnc3)n[nH]2)C1 (stereo not given) | 633 |
| Cc1ccc(NC(=O)Cn2nc3cc(-c4ccccc4)nc(C)n3c2=O)c(F)c1 | 958 |
| CCOC(=O)c1ccc(NC(=O)COc2cc(C)nc(N3CCN(c4ccccc4)CC3)n2)cc1 | 864 |
| Cc1ccc(-c2csc(NC3OC(=O)c4ccccc43)n2)cc1C (stereo not given) | 808 |
| COCCOCC1CCN(S(=O)(=O)c2ccc(C(F)(F)F)cc2)CC1 | 937 |
